Laboratory results published in ChEMBL document CHEMBL4725294, “Centrally Active Multitarget Anti-Alzheimer Agents Derived from the Antioxidant Lead CR-6” (J Med Chem, 2020).
Activity calls are given as the source filed them. No cut-off for these calls is given here.

Key:
Beta-secretase 1 = Beta-secretase 1 (Homo sapiens, UniProt P56817); experiment: Inhibition human BACE1 expressed in baculovirus expression system at 5 uM using Panvera peptide as substrate measured after 60 mins by fluorescence assay relative to control; details: 1 h
[1] = Acute toxicity in C57BL6/J mouse at 5 to 10 mg/kg, ip measured up to 24 hrs; format: organism-based; details: in vivo, dose 5-10 mg/kg
[2] = Acute toxicity in C57BL6/J mouse assessed as reduction in locomotor activity at 15 mg/kg, ip measured after 5 mins; format: organism-based; details: in vivo
[3] = Acute toxicity in C57BL6/J mouse assessed as piloerection at 15 mg/kg, ip measured after 5 mins; format: organism-based; details: in vivo
[4] = Acute toxicity in C57BL6/J mouse assessed as ptosis at 15 mg/kg, ip measured after 5 mins; format: organism-based; details: in vivo
[5] = Acute toxicity in C57BL6/J mouse assessed as tremor at 15 mg/kg, ip measured after 5 mins; format: organism-based; details: in vivo
[6] = Acute toxicity in C57BL6/J mouse at 15 mg/kg, ip measured after 3 hrs; format: organism-based; details: in vivo
Mus musculus [7] = experiment: Improvement in memory impairment in APP/PS1 double mutant-transgenic C57BL6/J mouse model assessed as […] at 10 mg/kg/day, ip for 4 weeks followed by compound washout by maze two-object recognition test; format: functional, organism-based
Mus musculus [8] = experiment: Antialzheimer activity in APP/PS1 double mutant-transgenic C57BL6/J mouse model assessed as reduction in soluble amyloid beta 40 level in cortex at 10 mg/kg/day, ip for 4 weeks followed by compound washout and measured after 24 hrs by ELISA; format: functional, organism-based
Mus musculus [9] = experiment: Antialzheimer activity in APP/PS1 double mutant-transgenic C57BL6/J mouse model assessed as reduction in Bace1 gene expression at 10 mg/kg/day, ip for 4 weeks followed by compound washout and measured after 24 hrs by qPCR analysis; format: functional, organism-based
Mus musculus [10] = experiment: Antialzheimer activity in APP/PS1 double mutant-transgenic C57BL6/J mouse model assessed as reduction in Bace1 expression at 10 mg/kg/day, ip for 4 weeks followed by compound washout and measured after 24 hrs by Western blot analysis; format: functional, organism-based
Mus musculus [11] = experiment: Antialzheimer activity in APP/PS1 double mutant-transgenic C57BL6/J mouse model assessed as reduction in oxidized protein level at 10 mg/kg/day, ip for 4 weeks followed by compound washout and measured after 24 hrs by Western blot analysis; format: functional, organism-based
Mus musculus [12] = experiment: Antialzheimer activity in APP/PS1 double mutant-transgenic C57BL6/J mouse model assessed as increase in Hmox1 gene expression at 10 mg/kg/day, ip for 4 weeks followed by compound washout and measured after 24 hrs by qPCR analysis; format: functional, organism-based
[13] = Stability in human plasma assessed as parent compound remaining at 10 uM measured immediately by UPLC-MS/MS analysis; format: ADME, cell-free; details: read-out: Stabilty
[14] = Stability in human plasma assessed as parent compound remaining at 10 uM measured after 180 mins by UPLC-MS/MS analysis; format: ADME, cell-free; details: read-out: Stabilty
[15] = Stability in mouse plasma assessed as parent compound remaining at 10 uM measured immediately by UPLC-MS/MS analysis; format: ADME, cell-free; details: read-out: Stabilty
[16] = Stability in mouse plasma assessed as parent compound remaining at 10 uM measured after 60 mins by UPLC-MS/MS analysis; format: ADME, cell-free; details: read-out: Stabilty
[17] = Stability in rat plasma assessed as parent compound remaining at 10 uM measured immediately by UPLC-MS/MS analysis; format: ADME, cell-free; details: read-out: Stabilty
[18] = Stability in rat plasma assessed as parent compound remaining at 10 uM measured after 180 mins by UPLC-MS/MS analysis; format: ADME, cell-free; details: read-out: Stabilty
[19] = Stability in rat plasma assessed as parent compound remaining at 10 uM measured after 360 mins by UPLC-MS/MS analysis; format: ADME, cell-free; details: read-out: Stabilty
[20] = Stability in human liver microsomes assessed as parent compound remaining at 5 uM measured up to 60 mins by UPLC-MS/MS analysis; format: ADME, Microsome; details: read-out: Stabilty
[21] = Half life in human liver microsomes at 5 uM by UPLC-MS/MS analysis; format: ADME, Microsome
[22] = Intrinsic clearance in human liver microsomes assessed per mg protein at 5 uM by UPLC-MS/MS analysis; format: ADME, Microsome; details: read-out: CLH
[23] = Half life in mouse liver microsomes at 5 uM by UPLC-MS/MS analysis; format: ADME, Microsome
[24] = Intrinsic clearance in mouse liver microsomes assessed per mg protein at 5 uM by UPLC-MS/MS analysis; format: ADME, Microsome; details: read-out: CLH
[25] = Stability in rat liver microsomes assessed as parent compound remaining at 5 uM measured up to 60 mins by UPLC-MS/MS analysis; format: ADME, Microsome; details: read-out: Stabilty
[26] = Half life in rat liver microsomes at 5 uM by UPLC-MS/MS analysis; format: ADME, Microsome
[27] = Drug metabolism in human liver microsomes assessed as N-[8-[(6-chloro-1,2,3,4-tetrahydroacridin-9-yl)amino]octyl]-3-hydroxy-5-(4-methoxy-3,6-dioxo-cyclohexa-1,4-dien-1-yl)-3-methyl-pentanamide formation at 5 uM measured up to 60 mins by UPLC-MS/MS analysis; format: ADME, Microsome; details: 1 h
[28] = Drug metabolism in human liver microsomes assessed as N-[8-[(6-chloro-1,2,3,4-tetrahydroacridin-9-yl)amino]octyl]-5-(2,5-dihydroxy-4-methoxy-phenyl)-3-hydroxy-3-methyl-pentanamide formation at 5 uM measured up to 60 mins by UPLC-MS/MS analysis; format: ADME, Microsome; details: 1 h
[29] = Drug metabolism in human liver microsomes assessed as 6-chloro-1,2,3,4-tetrahydroacridin-9-amine formation at 5 uM measured up to 60 mins by UPLC-MS/MS analysis; format: ADME, Microsome; details: 1 h
[30] = Drug metabolism in mouse liver microsomes assessed as N-[8-[(6-chloro-1,2,3,4-tetrahydroacridin-9-yl)amino]octyl]-5-(2,5-dihydroxy-4-methoxy-phenyl)-3-hydroxy-3-methyl-pentanamide formation at 5 uM measured up to 60 mins by UPLC-MS/MS analysis; format: ADME, Microsome; details: 1 h
[31] = Drug metabolism in mouse liver microsomes assessed as 6-chloro-1,2,3,4-tetrahydroacridin-9-amine formation at 5 uM measured up to 60 mins by UPLC-MS/MS analysis; format: ADME, Microsome; details: 1 h
[32] = Drug metabolism in rat liver microsomes assessed as N-[8-[(6-chloro-1,2,3,4-tetrahydroacridin-9-yl)amino]octyl]-3-hydroxy-5-(4-methoxy-3,6-dioxo-cyclohexa-1,4-dien-1-yl)-3-methyl-pentanamide formation at 5 uM measured up to 60 mins by UPLC-MS/MS analysis; format: ADME, Microsome; details: 1 h
[33] = Drug metabolism in rat liver microsomes assessed as N-[8-[(6-chloro-1,2,3,4-tetrahydroacridin-9-yl)amino]octyl]-5-(2,5-dihydroxy-4-methoxy-phenyl)-3-hydroxy-3-methyl-pentanamide formation at 5 uM measured up to 60 mins by UPLC-MS/MS analysis; format: ADME, Microsome; details: 1 h
[34] = Drug metabolism in rat liver microsomes assessed as 6-chloro-1,2,3,4-tetrahydroacridin-9-amine formation at 5 uM measured up to 60 mins by UPLC-MS/MS analysis; format: ADME, Microsome; details: 1 h
Cholinesterase = Cholinesterase (Homo sapiens, UniProt P06276)
Description: Inhibition of recombinant human BChE using butyrylthiocholine iodide as substrate preincubated for 15 mins followed by substrate addition by Ellman's method

in vitro = details: PAMPA
Description: Permeability of compound in PBS/EtOH buffer (7:3) PAMPA-BBB assay

Sequence of Cholinesterase (P06276 whole entry): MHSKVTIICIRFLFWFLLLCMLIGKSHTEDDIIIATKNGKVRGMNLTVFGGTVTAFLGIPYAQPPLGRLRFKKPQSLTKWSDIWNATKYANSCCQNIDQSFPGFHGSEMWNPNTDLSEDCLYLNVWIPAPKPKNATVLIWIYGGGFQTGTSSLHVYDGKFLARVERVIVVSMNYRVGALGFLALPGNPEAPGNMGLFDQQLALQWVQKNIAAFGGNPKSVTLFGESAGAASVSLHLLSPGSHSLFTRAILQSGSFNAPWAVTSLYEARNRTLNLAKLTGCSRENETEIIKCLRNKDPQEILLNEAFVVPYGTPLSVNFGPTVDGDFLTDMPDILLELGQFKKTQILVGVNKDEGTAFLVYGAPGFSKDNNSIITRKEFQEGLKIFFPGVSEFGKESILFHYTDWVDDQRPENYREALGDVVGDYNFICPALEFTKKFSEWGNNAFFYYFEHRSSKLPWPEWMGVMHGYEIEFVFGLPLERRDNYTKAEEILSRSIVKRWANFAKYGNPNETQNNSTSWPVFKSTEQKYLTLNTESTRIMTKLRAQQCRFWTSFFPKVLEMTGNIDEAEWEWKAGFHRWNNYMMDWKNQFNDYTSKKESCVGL
Sequence of Beta-secretase 1 (P56817 whole entry): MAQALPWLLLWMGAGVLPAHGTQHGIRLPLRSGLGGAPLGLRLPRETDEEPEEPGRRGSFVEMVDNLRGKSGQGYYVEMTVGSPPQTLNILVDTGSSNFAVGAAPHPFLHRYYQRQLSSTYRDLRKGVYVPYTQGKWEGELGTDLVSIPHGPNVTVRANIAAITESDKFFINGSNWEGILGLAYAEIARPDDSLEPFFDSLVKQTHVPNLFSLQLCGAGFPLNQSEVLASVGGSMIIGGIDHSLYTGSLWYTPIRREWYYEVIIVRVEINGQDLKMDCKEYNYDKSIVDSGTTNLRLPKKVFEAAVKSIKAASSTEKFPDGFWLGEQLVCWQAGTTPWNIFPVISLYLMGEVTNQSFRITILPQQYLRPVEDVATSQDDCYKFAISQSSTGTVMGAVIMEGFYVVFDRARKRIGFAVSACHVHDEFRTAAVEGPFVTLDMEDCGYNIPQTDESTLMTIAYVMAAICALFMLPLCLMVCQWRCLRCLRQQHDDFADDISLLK

COc1cc2c(cc1O)CCC(C)(CC(=O)NCCCCCCCCNc1c3c(nc4cc(Cl)ccc14)CCCC3)O2 (configuration not stated)
inhibition at 5 µM (Beta-secretase 1): 19%
Activity [1]: Non-Toxic
Activity [2]: Toxic
Activity [3]: Toxic
Activity [4]: Toxic
Activity [5]: Toxic
Activity [6]: Non-Toxic
Activity (Mus musculus [7]): inactive
Activity (Mus musculus [8]): inactive
Activity (Mus musculus [9]): Active
Activity (Mus musculus [10]): inactive
Activity (Mus musculus [11]): inactive
Activity (Mus musculus [12]): Active
remaining at 0 min, 10 µM [13]: 100%
remaining at 3 h, 10 µM [14]: 100%
remaining at 0 min, 10 µM [15]: 100%
remaining at 1 h, 10 µM [16]: 100%
remaining at 0 min, 10 µM [17]: 100%
remaining at 3 h, 10 µM [18]: 100%
remaining at 6 h, 10 µM [19]: 98%
remaining at 1 h, 5 µM [20]: 3.6%
half-life at 5 µM [21]: 12.6 min
microsomal CLint at 5 µM [22]: 55.2 µL/min/mg
half-life at 5 µM [23]: 50.5 min
microsomal CLint at 5 µM [24]: 13.7 µL/min/mg
remaining at 1 h, 5 µM [25]: 36.5%
half-life at 5 µM [26]: 42.4 min
Drug metabolism [27]: Metabolite_Detected
Drug metabolism [28]: Metabolite_Detected
Drug metabolism [29]: Metabolite_Detected
Drug metabolism [30]: Metabolite_Detected
Drug metabolism [31]: Metabolite_Detected
Drug metabolism [32]: Metabolite_Detected
Drug metabolism [33]: Metabolite_Detected
Drug metabolism [34]: Metabolite_Detected
IC50 (Cholinesterase): 170 nM
Papp (in vitro): 9.6 ×10⁻⁶ cm/s
